Results published in patent publication US20250382344A1, “Soluble GLP1/GIP/NPY2 Receptor Triple Agonists” (Boehringer Ingelheim International GmH, priority 2024, published 2025).
pEC50: −log10 of the molar value. Like-named read-outs stand apart in the source and are kept apart here. *1 amine or outer side, *2 acyl side, *3 side chain or, on linkers, in order; H or OH if unused. Where a SMILES comes first, the peptide text is derived from it. Side-chain parts run from the residue outwards. [ ]: non-standard residue; d: D form. The star is where a group is joined. C18 diacid = O=C(O)CCCCCCCCCCCCCCCCC(=O)*; γGlu = O=C(O)[C@H](CCC(=O)[*:2])N[*:1]; εLys = N[C@@H](CCCCN[*:1])C(=O)[*:2]; Aib = CC(C)(N)C(=O)O

Experiments:
hGLP1R = target: T1, hGLP1R (Homo sapiens, UniProt P43220); test: hGLP1R CreLuc assay in 0.5% and 100% plasma (HEK-293 CRE-luciferase reporter cells); type: cell-based; settings: HEK-293 reporter cells
T1 construct: expressed in transfected cells; host or cells: HEK-293 CRE-luciferase reporter cells
T1 sequence (P43220 24-463): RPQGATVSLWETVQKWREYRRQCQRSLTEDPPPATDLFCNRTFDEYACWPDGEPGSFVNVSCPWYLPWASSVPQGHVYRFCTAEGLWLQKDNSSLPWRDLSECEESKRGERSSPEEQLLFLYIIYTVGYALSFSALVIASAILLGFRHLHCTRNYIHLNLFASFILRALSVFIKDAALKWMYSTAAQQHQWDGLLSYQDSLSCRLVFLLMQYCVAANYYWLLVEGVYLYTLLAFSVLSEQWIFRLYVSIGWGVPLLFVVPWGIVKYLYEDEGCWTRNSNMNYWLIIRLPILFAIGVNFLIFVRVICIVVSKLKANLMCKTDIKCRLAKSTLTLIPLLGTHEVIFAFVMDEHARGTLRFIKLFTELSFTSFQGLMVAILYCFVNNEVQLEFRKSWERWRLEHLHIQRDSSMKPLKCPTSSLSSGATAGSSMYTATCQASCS

hGIPR = target: T2, hGIPR (Homo sapiens, UniProt P48546); test: hGIPR CreLuc assay in 0.5% and 100% plasma (CHO CRE-luciferase reporter cells); type: cell-based
T2 construct: expressed in transfected cells; host or cells: CHO CRE-luciferase reporter cells
T2 sequence (P48546 22-466): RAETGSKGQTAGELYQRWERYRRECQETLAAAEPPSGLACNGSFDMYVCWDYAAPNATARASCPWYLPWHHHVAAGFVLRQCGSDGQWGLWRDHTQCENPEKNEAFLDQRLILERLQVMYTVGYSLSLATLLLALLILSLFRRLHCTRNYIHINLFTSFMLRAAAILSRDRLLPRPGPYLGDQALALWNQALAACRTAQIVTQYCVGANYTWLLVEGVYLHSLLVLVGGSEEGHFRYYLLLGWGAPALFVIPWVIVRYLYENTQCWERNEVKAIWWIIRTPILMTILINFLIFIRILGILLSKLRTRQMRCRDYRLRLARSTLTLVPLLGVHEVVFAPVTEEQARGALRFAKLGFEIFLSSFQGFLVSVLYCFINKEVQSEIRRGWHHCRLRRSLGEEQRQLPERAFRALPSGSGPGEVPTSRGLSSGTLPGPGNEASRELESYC

[1] = Solubility in 0.1 M phosphate buffer at pH 7; type: physicochemical; settings: 0.1 M phosphate buffer at pH 7, 10 mg/mL final peptide concentration, shaking 2 hours at room temperature, peptides as TFA-salts; measured sample pH 6.5-7.0
[2] = 0.5% human plasma, read-out: hGLP1R 0.5% hP
[3] = 100% human plasma, read-out: hGLP1R 100% hP
[4] = 0.5% human plasma, read-out: hGIPR 0.5% hP
[5] = 100% human plasma, read-out: hGIPR 100% hP

SMILES	pEC50 (hGLP1R; [2])	pEC50 (hGLP1R; [3])	pEC50 (hGIPR; [4])	pEC50 (hGIPR; [5])	solubility at 2 h [1]
CC[C@H](C)[C@H](NC(=O)[C@H](CC(C)C)NC(=O)[C@H](Cc1c[nH]cn1)NC(=O)[C@H](CCCNC(=N)N)NC(=O)[C@@H](NC(=O)[C@H](Cc1ccccc1)NC(=O)[C@H](C)NC(=O)C(C)(C)NC(=O)[C@H](CCC(N)=O)NC(=O)[C@H](C)NC(=O)[C@H](CCC(N)=O)NC(=O)[C@H](CCCCN)NC(=O)[C@H](CC(=O)O)NC(=O)[C@H](CC(C)C)NC(=O)[C@](C)(CC(C)C)NC(=O)[C@@H](NC(=O)[C@H](CO)NC(=O)[C@H](Cc1ccc(O)cc1)NC(=O)[C@H](CC(=O)O)NC(=O)[C@H](CO)NC(=O)[C@@H](NC(=O)[C@H](Cc1ccccc1)NC(=O)[C@@H](NC(=O)CNC(=O)[C@H](CCC(=O)O)NC(=O)C(C)(C)NC(=O)[C@@H](N)Cc1ccc(O)cc1)[C@@H](C)O)[C@@H](C)O)[C@@H](C)CC)C(C)C)C(=O)N[C@@H](CC(N)=O)C(=O)N[C@@H](CCCCNC(=O)[C@@H](N)CCCCNC(=O)CC[C@H](NC(=O)CC[C@H](NC(=O)CC[C@H](NC(=O)CC[C@H](NC(=O)CC[C@H](NC(=O)CC[C@H](NC(=O)CCCCCCCCCCCCCCCCC(=O)O)C(=O)O)C(=O)O)C(=O)O)C(=O)O)C(=O)O)C(=O)O)C(=O)NC(C)(C)C(=O)N[C@H](C(=O)N[C@@H](CCCNC(=N)N)C(=O)N[C@@H](CCC(N)=O)C(=O)N[C@@H](CCCNC(=N)N)C(=O)N[C@@H](Cc1ccc(O)cc1)C(N)=O)[C@@H](C)O [Compound 67, Y-Aib-E-G-T-F-T-S-D-Y-S-I-aMeL-L-D-K-Q-A-Q-Aib-A-F-V-R-H-L-I-N-K(1,3)-Aib-T-R-Q-R-Y-NH2.C18DA-gGlu-gGlu-gGlu-gGlu-gGlu-gGlu-eLys(1,2)]	10.00	9.22	10.00	8.77	8800 µg/mL
CC[C@H](C)[C@H](NC(=O)[C@H](CC(C)C)NC(=O)[C@H](Cc1c[nH]cn1)NC(=O)[C@H](CCCNC(=N)N)NC(=O)[C@@H](NC(=O)[C@H](Cc1ccccc1)NC(=O)[C@H](C)NC(=O)C(C)(C)NC(=O)[C@H](CCC(N)=O)NC(=O)[C@H](C)NC(=O)[C@H](CCC(N)=O)NC(=O)[C@H](CCCCN)NC(=O)[C@H](CCC(=O)O)NC(=O)[C@H](CC(C)C)NC(=O)C(C)(C)NC(=O)[C@@H](NC(=O)[C@H](CO)NC(=O)[C@H](Cc1ccc(O)cc1)NC(=O)[C@H](CC(=O)O)NC(=O)[C@H](CO)NC(=O)[C@@H](NC(=O)[C@H](Cc1ccccc1)NC(=O)[C@@H](NC(=O)CNC(=O)[C@H](CCC(=O)O)NC(=O)C(C)(C)NC(=O)[C@@H](N)Cc1ccc(O)cc1)[C@@H](C)O)[C@@H](C)O)[C@@H](C)CC)C(C)C)C(=O)N[C@@H](C)C(=O)N[C@@H](CCCCNC(=O)[C@@H](N)CCCCNC(=O)CC[C@H](NC(=O)CC[C@H](NC(=O)CC[C@H](NC(=O)CC[C@H](NC(=O)CC[C@H](NC(=O)CC[C@H](NC(=O)CCCCCCCCCCCCCCCCC(=O)O)C(=O)O)C(=O)O)C(=O)O)C(=O)O)C(=O)O)C(=O)O)C(=O)NC(C)(C)C(=O)N[C@H](C(=O)N[C@@H](CCCNC(=N)N)C(=O)N[C@@H](CCC(N)=O)C(=O)N[C@@H](CCCNC(=N)N)C(=O)N[C@@H](Cc1ccc(O)cc1)C(N)=O)[C@@H](C)O [Compound 68, Y-Aib-E-G-T-F-T-S-D-Y-S-I-Aib-L-E-K-Q-A-Q-Aib-A-F-V-R-H-L-I-A-K(1,3)-Aib-T-R-Q-R-Y-NH2.C18DA-gGlu-gGlu-gGlu-gGlu-gGlu-gGlu-eLys(1,2)] (H-Y[Aib]EGTFTSDYSI[Aib]LEKQAQ[Aib]AFVRHLIAK([εLys-γGlu-γGlu-γGlu-γGlu-γGlu-γGlu-C18 diacid])[Aib]TRQRY-NH2; N-terminus assumed)	9.22	–	9.70	–	4800 µg/mL
CC[C@H](C)[C@H](NC(=O)[C@H](CC(C)C)NC(=O)[C@H](Cc1c[nH]cn1)NC(=O)[C@H](CCCNC(=N)N)NC(=O)[C@@H](NC(=O)[C@H](Cc1ccccc1)NC(=O)[C@H](C)NC(=O)C(C)(C)NC(=O)[C@H](CCC(N)=O)NC(=O)[C@H](C)NC(=O)[C@H](CCC(N)=O)NC(=O)[C@H](CCC(=O)O)NC(=O)[C@H](CCC(=O)O)NC(=O)[C@H](CC(C)C)NC(=O)[C@](C)(CC(C)C)NC(=O)[C@@H](NC(=O)[C@H](CO)NC(=O)[C@H](Cc1ccc(O)cc1)NC(=O)[C@H](CC(=O)O)NC(=O)[C@H](CO)NC(=O)[C@@H](NC(=O)[C@H](Cc1ccccc1)NC(=O)[C@@H](NC(=O)CNC(=O)[C@H](CCC(=O)O)NC(=O)C(C)(C)NC(=O)[C@@H](N)Cc1ccc(O)cc1)[C@@H](C)O)[C@@H](C)O)[C@@H](C)CC)C(C)C)C(=O)N[C@@H](CC(N)=O)C(=O)N[C@@H](CCCCNC(=O)[C@@H](N)CCCCNC(=O)CC[C@H](NC(=O)CC[C@H](NC(=O)CC[C@H](NC(=O)CC[C@H](NC(=O)CC[C@H](NC(=O)CC[C@H](NC(=O)CCCCCCCCCCCCCCCCCCC(=O)O)C(=O)O)C(=O)O)C(=O)O)C(=O)O)C(=O)O)C(=O)O)C(=O)NC(C)(C)C(=O)N[C@H](C(=O)N[C@@H](CCCNC(=N)N)C(=O)N[C@@H](CCC(N)=O)C(=O)N[C@@H](CCCNC(=N)N)C(=O)N[C@@H](Cc1ccc(O)cc1)C(N)=O)[C@@H](C)O [Compound 89, Y-Aib-E-G-T-F-T-S-D-Y-S-I-aMeL-L-E-E-Q-A-Q-Aib-A-F-V-R-H-L-I-N-K(1,3)-Aib-T-R-Q-R-Y-NH2.C20DA-gGlu-gGlu-gGlu-gGlu-gGlu-gGlu-eLys(1,2)]	9.70	8.77	10.00	9.05	8800 µg/mL
CC[C@H](C)[C@H](NC(=O)[C@H](CC(C)C)NC(=O)[C@H](Cc1c[nH]cn1)NC(=O)[C@H](CCCNC(=N)N)NC(=O)[C@@H](NC(=O)[C@H](Cc1ccccc1)NC(=O)[C@H](CCC(=O)O)NC(=O)C(C)(C)NC(=O)[C@H](CCC(N)=O)NC(=O)[C@H](C)NC(=O)[C@H](CCC(N)=O)NC(=O)[C@H](CCCCN)NC(=O)[C@H](CCC(=O)O)NC(=O)[C@H](CC(C)C)NC(=O)C(C)(C)NC(=O)[C@@H](NC(=O)[C@H](CO)NC(=O)[C@H](Cc1ccc(O)cc1)NC(=O)[C@H](CC(=O)O)NC(=O)[C@H](CO)NC(=O)[C@@H](NC(=O)[C@H](Cc1ccccc1)NC(=O)[C@@H](NC(=O)CNC(=O)[C@H](CCC(=O)O)NC(=O)C(C)(C)NC(=O)[C@@H](N)Cc1ccc(O)cc1)[C@@H](C)O)[C@@H](C)O)[C@@H](C)CC)C(C)C)C(=O)N[C@@H](CC(N)=O)C(=O)N[C@@H](CCCCNC(=O)COCCOCCNC(=O)COCCOCCNC(=O)CC[C@H](NC(=O)CC[C@H](NC(=O)CC[C@H](NC(=O)CC[C@H](NC(=O)CC[C@H](NC(=O)CCCCCCCCCCCCCCCCC(=O)O)C(=O)O)C(=O)O)C(=O)O)C(=O)O)C(=O)O)C(=O)NC(C)(C)C(=O)N[C@H](C(=O)N[C@@H](CCCNC(=N)N)C(=O)N[C@@H](CCC(N)=O)C(=O)N[C@@H](CCCNC(=N)N)C(=O)N[C@@H](Cc1ccc(O)cc1)C(N)=O)[C@@H](C)O [Compound 98, Y-Aib-E-G-T-F-T-S-D-Y-S-I-Aib-L-E-K-Q-A-Q-Aib-E-F-V-R-H-L-I-N-K(1,3)-Aib-T-R-Q-R-Y-NH2.C18DA-gGlu-gGlu-gGlu-gGlu-gGlu-OEG-OEG(1,2)]	9.15	–	9.30	–	4900 µg/mL
CC[C@H](C)[C@H](NC(=O)[C@H](CC(C)C)NC(=O)[C@H](Cc1c[nH]cn1)NC(=O)[C@H](CCCNC(=N)N)NC(=O)[C@@H](NC(=O)[C@H](Cc1ccccc1)NC(=O)[C@H](CCC(=O)O)NC(=O)C(C)(C)NC(=O)[C@H](CCC(N)=O)NC(=O)[C@H](C)NC(=O)[C@H](CCC(N)=O)NC(=O)[C@H](CCCCN)NC(=O)[C@H](CC(=O)O)NC(=O)[C@H](CC(C)C)NC(=O)C(C)(C)NC(=O)[C@@H](NC(=O)[C@H](CO)NC(=O)[C@H](Cc1ccc(O)cc1)NC(=O)[C@H](CC(=O)O)NC(=O)[C@H](CO)NC(=O)[C@@H](NC(=O)[C@H](Cc1ccccc1)NC(=O)[C@@H](NC(=O)CNC(=O)[C@H](CCC(=O)O)NC(=O)C(C)(C)NC(=O)[C@@H](N)Cc1ccc(O)cc1)[C@@H](C)O)[C@@H](C)O)[C@@H](C)CC)C(C)C)C(=O)N[C@@H](CC(N)=O)C(=O)N[C@@H](CCCCNC(=O)[C@@H](N)CCCCNC(=O)CC[C@H](NC(=O)CC[C@H](NC(=O)CC[C@H](NC(=O)CC[C@H](NC(=O)CC[C@H](NC(=O)CCCCCCCCCCCCCCCCC(=O)O)C(=O)O)C(=O)O)C(=O)O)C(=O)O)C(=O)O)C(=O)NC(C)(C)C(=O)N[C@H](C(=O)N[C@@H](CCCNC(=N)N)C(=O)N[C@@H](CCC(N)=O)C(=O)N[C@@H](CCCNC(=N)N)C(=O)N[C@@H](Cc1ccc(O)cc1)C(N)=O)[C@@H](C)O [Compound 113, Y-Aib-E-G-T-F-T-S-D-Y-S-I-Aib-L-D-K-Q-A-Q-Aib-E-F-V-R-H-L-I-N-K(1,3)-Aib-T-R-Q-R-Y-NH2.C18DA-gGlu-gGlu-gGlu-gGlu-gGlu-eLys(1,2)]	10.00	–	9.70	8.26	8700 µg/mL
